Laboratory results as given in the NIST ThermoML archive (doi:10.1021/je800945e).
± gives the expanded uncertainty stated by the source.

Conditions: Crystal; visual observation

## Nc1cccnc1 [β-aminopyridine]
  Normal melting temperature: 64.50 ± 0.5 °C
